# Test results published in patent publication US20100183669A1, “Mannose immunogens for HIV-1” (University of Oxford, priority 2005, published 2010).
# Key:
# 2G12 [1] = test: 2G12 binding ELISA of self glycoproteins CD48 and RPTPmu expressed in HEK293T cells with kifunensine; conditions: glycoproteins expressed in HEK293T cells with 5 μM kifunensine, FIG. 4
# Procedure: The aim of this study is to generate ‘self’ glycoproteins bearing oligomannose glycans which bind a 2G12 antibody and consequently display antigenic cross-reactivity with the HIV gp120. Two target glycoproteins, CD48 and Receptor Protein Tyrosine Phosphates mu (RPTPmu) were expressed in HEK293T cells in the presence of the mannosidase inhibitor kifunensine at 5 μM concentration. To verify that the mannosidase inhibitor was effective in producing glycoprotein containing oligomannose glycans, the glycans were released by digestion with protein N-glycanase F (PNGase F) and were then analysed by high-performance liquid chromatography (HPLC) and matrix assisted laser desorption/ionisation mass spectrometry (MALDI-MS).
# The resulting glycoproteins containing oligomannose-type N-linked glycans were tested for 2G12 binding by ELISA (FIG. 4). Particularly, 15.6 μg of CD48, 2 μg, 1 μg and 0.4 μg of RPTPmu were plated and 1 μg of non-kifunensine treated IgG was plated as a negative control.
# [2] = tested on: ER- and Golgi-resident class I α-mannosidases; conditions: relative to DMJ; cited from earlier work
# monoclonal antibody 2G12 = test: 2G12 sandwich ELISA of gp120 from CHO cells grown with or without kifunensine; format: binding; conditions: for binding to the monoclonal antibody 2G12 in ELISA: gp120 produced in CHO cells in the presence of kifunensine, compared with absence
# Procedure: To investigate the role of mannosidase inhibition, by kifunensine, on the formation of the 2G12 epitope, Chinese Hamster Ovary (CHO) cells, transfected with EE6HCMV gp120GS, secreting recombinant HIV-IIIB gp120, were cultured in CB2 DMEM Base culture medium supplemented with foetal calf serum (10%), penicillin (50 U/ml) and streptomycin (50 ^1g/ml). All reagents were obtained from Gibco Ltd, Uxbridge, UK. High expression of gp120 was maintained by the addition of methionine sulphoximine (200 nM). Cells were grown in the presence and absence kifunensine (see FIG. 1A, 1B).
# Glycoproteins were immobilized on plastic protein-binding plates. For the first experiment (FIG. 1A) 2G12 (5 ug/ml) was coated onto plate, left overnight at 4° C. Plates were then blocked with Bovine Serum albumin (3% w/v) for one hour. Subsequently, supernatant from gp120IIIB expressing CHO cells (with or without kifunensine) was added for one hour, at room temperature. Plates were then washed 3 times in PBS. 2G12 (titration from 10 yg/ml) was then added. After washing 2g12 binding was determined by phosphatase-conjugated anti-IgG secondary antibody, a final wash step and then phosphatase substrate measurement (p-nitrophenylphosphate, absorbance at 405 nm).
# (§1) BSA (x) was used in these experiments as a negative control.
# 2G12 [3] = test: Double antibody (b12/2G12) ELISA of gp120 captured with anti-gp120 antibody D7324; format: binding; conditions: gp120 produced with 5 μM kifunensine compared with double antibody ELISA of untreated gp120, FIG. 1 panel B
# Text: Binding of gp120, and measurement of b12/2G12 was again determined by phosphatase-conjugated anti-IgG secondary antibody.
# as §1
compound,measurement,setting,value
"RPTPmu: self glycoprotein expressed in HEK293T cells in the presence of 5 μM kifunensine, bearing oligomannose glycans",2G12 binding by ELISA,2G12 [1],can bind to 2G12
"CD48: self glycoprotein expressed in HEK293T cells in the presence of 5 μM kifunensine, bearing oligomannose glycans",2G12 binding by ELISA,2G12 [1],can bind to 2G12
O=C1N[C@@H]2[C@@H](O)[C@@H](O)[C@H](O)[C@@H](CO)N2C1=O [kifunensine],"concentration to effect mannosidase inhibition, lower than DMJ",[2],1000 fold
kifunensine treated gp120: HIV-1IIIB gp120 glycoprotein produced in a CHO stable cell line in the presence of kifunensine,number of 2G12 molecules able to bind to a single gp120 molecule,monoclonal antibody 2G12; gp120 expressed in the presence of kifunensine,at least two
same,binding to the monoclonal antibody 2G12 in ELISA,monoclonal antibody 2G12; expressed in the presence of kifunensine,dramatically enhanced
same,binding to the monoclonal antibody 2G12 in ELISA,monoclonal antibody 2G12; produced in the presence of kifunensine,higher binding
same,additional 2G12 binding sites on each molecule of gp120,"monoclonal antibody 2G12; gp120 produced in the presence of kifunensine, two 2G12 ELISA binding assays",at least one additional 2G12 binding site
same,proportion of gp120 molecules able to simultaneously bind two or more 2G12 antibody molecules,"monoclonal antibody 2G12; sandwich ELISA, 0-5 μM kifunensine, FIG. 1 panel A",a higher proportion
same,distinct epitopes for 2G12,2G12 [3],two distinct epitopes
